This is an account of results in patent publication US20100093777A1 (Takeda Pharmaceutical Company Limited, priority 2007, published 2010).

One may read the IC50 as the concentration at which inhibition is half-maximal.

One experiment deals with T1, Human ACC1 (Homo sapiens, UniProt Q13085).
T1 construct: His tag (from the pFAST-BacHTc vector); own knowledge: N-terminal 6xHis with TEV site; made in house; host or cells: SF-9 insect cells, recombinant baculovirus BAC-ACC1
The experiment in a line: Measurement of ACC1 inhibitory activity (recombinant enzyme, malachite green absorbance). The experiment is classed as biochemical. Particulars: recombinant human ACC1 8 μg/ml; 30° C.; 200 μM ATP, 200 μM Acetyl-CoA; absorbance 620 nm. Here is the method: The ACC1 inhibitory action of the compound of the present invention was evaluated by the following method.
Human ACC1 gene was cloned by PCR using a human liver cDNA library (Clontech) as a template and Primer 1 and Primer 2 shown below. Primer 1 and Primer 2 were prepared by adding SalI, NotI restriction enzyme recognition sequence based on the information of the base sequence (Genbank Accession U19822) of human ACC1 gene.
PCR was performed using a Pyrobest DNA polymerase (TAKARA BIO INC.) The obtained PCR product was cloned to pT7 Blue vector (Novagen) and, after confirmation of the base sequence, digested with restriction enzymes SalI and NotI. The obtained DNA fragment was inserted to pFAST-BacHTc (Invitrogen) digested with restriction enzymes SalI and NotI to give expression plasmid ACC1/pFAST-BacHTc.
Using the expression plasmid and BAC-TO-BAC Baculovirus Expression System (Invitrogen), virus stock BAC-ACC1 of recombinant Baculovirus was prepared.
SF-9 cells (Invitrogen) were inoculated to a medium (1 L) for insect cells (Sf-900IISFM medium (Invitrogen) containing 10% fetal bovine serum (Trace), 50 mg/L Gentamicin (Invitrogen) and 0.1% Pluronic F-68 (Invitrogen)) at 1×10^6 cells/mL, and cultured with shaking at 27° C., 100 rpm in a 2 L Erlenmeyer flask.
After 24 hr of the culture, recombinant Baculovirus BAC-ACC1 (10 mL) was added, and the cells were further cultured for 3 days. The culture medium was centrifuged at 1000×g for 5 min to give virus-infected cells. The cells were washed with phosphate buffered saline (Invitrogen), and centrifuged under the same conditions, and the obtained cells were cryopreserved at −80° C.
The cryopreserved cells were thawed in ice and suspended in 100 mL of 25 mM HEPES buffer (pH 7.5) containing 10% Glycerol, 0.13 M NaCl, 1 mM EDTA, 25 mM Sodium β-Glycerophosphate and 1 mM Sodium Orthovanadate, and supplemented with Complete Protease Inhibitor (Nippon Boehringer Ingelheim Co., Ltd.). The obtained suspension was homogenized 3 times in a polytron homogenizer (Kinematica) at 20,000 rpm for 30 sec. The obtained cell disruption solution was clarified by centrifugation at 185700×g for 50 min, and filtered through a 0.45 μm filter. The filtrate was passed through a column packed with 12 mL of Ni-NTA Super Flow Gel (QUIAGEN) at a flow rate of about 5 mL/min. The column was washed with buffer A (50 mM HEPES (pH 7.5) containing 0.3 M NaCl), further washed with buffer A containing 20 mM Imidazole, and eluted with buffer A containing 100 mM Imidazole. The eluate was concentrated with Vivaspin 20 (Vivascience) with a molecular weight cut off of 30K. The obtained concentrate was dialyzed against Sephadex G-25 (Amersham Biosciences, 358 ml) equilibrated with 50 mM HEPES (pH 7.5) containing 10 mM MgCl2, 2 mM Dithiothreitol, 10 mM Tripotassium Citrate and 0.3 M NaCl. The inner dialysate was concentrated with Vivaspin 20 (Vivascience) with a molecular weight cut off of 30K, and the concentrate was filtered through a 0.22 μm filter to give ACC1. The obtained ACC1 was cryopreserved at −80° C.
ACC1 (0.93 mg/ml) obtained in the above-mentioned (2) was diluted with an enzyme reaction buffer (50 mM HEPES (pH 7.5), 10 mM MgCl2, 10 mM Tripotassium Citrate, 2 mM Dithiothreitol, 0.75 mg/ml Fatty acid free BSA) to concentration of 8 μg/ml, and the mixture was added to each well of 384 well assay plate (Nunc 265196) by 10 μl.
Thereafter, ACC1 inhibitory rate (%) was measured in the same manner as in the below-mentioned Experimental Example 2-(3), and IC50 value was calculated.
ACC2 (Nd) (1.1 mg/ml) obtained in the above-mentioned (2) was diluted with an enzyme reaction buffer (50 mM HEPES (pH 7.5), 10 mM MgCl2, 10 mM Tripotassium Citrate, 2 mM Dithiothreitol, 0.75 mg/ml Fatty acid free BSA) to a concentration of 6.4 μg/ml, and the mixture was added to each well of a 384 well assay plate (Nunc 265196) by 10 μl. […]

Experiment [1] deals with T2, Human ACC2 (Nd, N terminal deleted) (Homo sapiens, UniProt O00763).
T2 construct: His tag (from the pFAST-BacHTa vector); own knowledge: N-terminal 6xHis with TEV site; made in house; host or cells: SF-9 insect cells, recombinant baculovirus BAC-ACC2 (Nd)
The experiment in a line: Measurement of ACC2 inhibitory activity (recombinant ACC2 (Nd), malachite green absorbance). The experiment is classed as biochemical. Particulars: recombinant human ACC2 (Nd) 6.4 μg/ml; 30° C.; 200 μM ATP, 200 μM Acetyl-CoA; absorbance 620 nm. The protocol: The ACC2 inhibitory action of the compound of the present invention was evaluated by the following method.
Human ACC2 gene was cloned by PCR using a human skeletal muscle cDNA library (Clontech) as a template and Primer 1 and Primer 2 shown below. Primer 1 and Primer 2 were prepared by adding SalI, XbaI restriction enzyme recognition sequences based on the information of the base sequence (Genbank Accession U89344) of human ACC2 gene.
PCR was performed using Pyrobest DNA polymerase (TAKARA BIO INC.). The obtained PCR product was cloned to pT7 Blue vector (Novagen) and, after confirmation of the base sequence, digested with restriction enzymes SalI and XbaI. The obtained DNA fragment was inserted into pFAST-BacHTa (Invitrogen) digested with restriction enzymes SalI and XbaI to give expression plasmid ACC2/pFAST-BacHTa.
PCR was performed using the expression plasmid as a template and Primer 3 and Primer 4 shown below to prepare a plasmid to be used for expression of ACC2 free of mitochondrial targeting sequence.
PCR was performed using Pyrobest-DNA polymerase (TAKARA BIO INC.). The obtained PCR product was cloned to pT7 Blue vector (Novagen) and, after confirmation of the base sequence, digested with restriction enzymes SalI and AflII. The obtained DNA fragment was inserted into pFAST-BacHTa (Invitrogen) digested with restriction enzymes SalI and AflII to give expression plasmid ACC2mito7/pFAST-BacHTa.
Using the expression plasmid and BAC-TO-BAC Baculovirus Expression System (Invitrogen), virus stock BAC-ACC2 (N terminal deleted (hereinafter Nd)) of recombinant Baculovirus was prepared.
SF-9 cells (Invitrogen) were inoculated to a medium (2 L) for insect cells (Sf-900IISFM medium (Invitrogen) containing 10% fetal bovine serum (Trace), 50 mg/L Gentamicin (Invitrogen), 0.1% Pluronic F-68 (Invitrogen)) at 0.5×10^6 cells/mL, and cultured with shaking in Wave Bioreactor (Wave) at 27° C., 20 rpm, rocking angle […], oxygen concentration 30%.
On day 4 of the culture, 3 L of the medium for insect cells was added, the rocking angle was set to 8°, and the cells were cultured. On day 5 of the culture, 100 mL of recombinant Baculovirus BAC-ACC2 (Nd) was added, 5 L of the medium for insect cells was further added, the rocking angle was set to 11°, and the cells were cultured for 3 days. The culture medium was centrifuged at 1000×g for 10 min to give virus-infected cells. The cells were washed with phosphate buffered saline (Invitrogen) and centrifuged under the same conditions. The obtained cells were cryopreserved at −80° C.
The cryopreserved cells were thawed in ice and suspended in 900 mL of 25 mM HEPES buffer (pH 7.5) containing 10% Glycerol, 0.13 M NaCl, 1 mM EDTA, 25 mM Sodium βGlycerophosphate and 1 mM Sodium Orthovanadate, and supplemented with Complete Protease Inhibitor (Nippon Boehringer Ingelheim Co., Ltd.). The obtained suspension was homogenized 3 times in a polytron homogenizer (Kinematica) at 20,000 rpm for 30 sec. The obtained cell disruption solution was clarified by centrifugation at 31000×g for 60 min, and filtered through a 0.45 μm filter. The filtrate was passed through a column packed with 60 mL of Ni-NTA Super Flow Gel (QUIAGEN) at a flow rate of about 5 mL/min. The column was washed with buffer A (50 mM HEPES (pH 7.5) containing 0.3 M NaCl), further washed with buffer A containing 20 mM Imidazole, and eluted with buffer A containing 100 mM Imidazole. The eluate was concentrated with Vivaspin 20 (Vivascience) with a molecular weight cut off of 30K. The obtained concentrate was dialyzed against 50 mM HEPES (pH 7.5) containing 10 mM MgCl2, 2[…] Dithiothreitol, 10 mM Tripotassium Citrate and 0.3 M NaCl. The inner dialysate was filtered through a 0.22 μm filter to give ACC2 (Nd). The obtained ACC2 (Nd) was cryopreserved at −80° C.
A test compound was dissolved in dimethyl sulfoxide (DMSO) and the mixture was diluted with an enzyme reaction buffer and the resulting solution (5 μl) was added to each well.

SMILES strings stand for the structures.

T2 sequence (O00763 117-2458 limits assumed, stated change not applied): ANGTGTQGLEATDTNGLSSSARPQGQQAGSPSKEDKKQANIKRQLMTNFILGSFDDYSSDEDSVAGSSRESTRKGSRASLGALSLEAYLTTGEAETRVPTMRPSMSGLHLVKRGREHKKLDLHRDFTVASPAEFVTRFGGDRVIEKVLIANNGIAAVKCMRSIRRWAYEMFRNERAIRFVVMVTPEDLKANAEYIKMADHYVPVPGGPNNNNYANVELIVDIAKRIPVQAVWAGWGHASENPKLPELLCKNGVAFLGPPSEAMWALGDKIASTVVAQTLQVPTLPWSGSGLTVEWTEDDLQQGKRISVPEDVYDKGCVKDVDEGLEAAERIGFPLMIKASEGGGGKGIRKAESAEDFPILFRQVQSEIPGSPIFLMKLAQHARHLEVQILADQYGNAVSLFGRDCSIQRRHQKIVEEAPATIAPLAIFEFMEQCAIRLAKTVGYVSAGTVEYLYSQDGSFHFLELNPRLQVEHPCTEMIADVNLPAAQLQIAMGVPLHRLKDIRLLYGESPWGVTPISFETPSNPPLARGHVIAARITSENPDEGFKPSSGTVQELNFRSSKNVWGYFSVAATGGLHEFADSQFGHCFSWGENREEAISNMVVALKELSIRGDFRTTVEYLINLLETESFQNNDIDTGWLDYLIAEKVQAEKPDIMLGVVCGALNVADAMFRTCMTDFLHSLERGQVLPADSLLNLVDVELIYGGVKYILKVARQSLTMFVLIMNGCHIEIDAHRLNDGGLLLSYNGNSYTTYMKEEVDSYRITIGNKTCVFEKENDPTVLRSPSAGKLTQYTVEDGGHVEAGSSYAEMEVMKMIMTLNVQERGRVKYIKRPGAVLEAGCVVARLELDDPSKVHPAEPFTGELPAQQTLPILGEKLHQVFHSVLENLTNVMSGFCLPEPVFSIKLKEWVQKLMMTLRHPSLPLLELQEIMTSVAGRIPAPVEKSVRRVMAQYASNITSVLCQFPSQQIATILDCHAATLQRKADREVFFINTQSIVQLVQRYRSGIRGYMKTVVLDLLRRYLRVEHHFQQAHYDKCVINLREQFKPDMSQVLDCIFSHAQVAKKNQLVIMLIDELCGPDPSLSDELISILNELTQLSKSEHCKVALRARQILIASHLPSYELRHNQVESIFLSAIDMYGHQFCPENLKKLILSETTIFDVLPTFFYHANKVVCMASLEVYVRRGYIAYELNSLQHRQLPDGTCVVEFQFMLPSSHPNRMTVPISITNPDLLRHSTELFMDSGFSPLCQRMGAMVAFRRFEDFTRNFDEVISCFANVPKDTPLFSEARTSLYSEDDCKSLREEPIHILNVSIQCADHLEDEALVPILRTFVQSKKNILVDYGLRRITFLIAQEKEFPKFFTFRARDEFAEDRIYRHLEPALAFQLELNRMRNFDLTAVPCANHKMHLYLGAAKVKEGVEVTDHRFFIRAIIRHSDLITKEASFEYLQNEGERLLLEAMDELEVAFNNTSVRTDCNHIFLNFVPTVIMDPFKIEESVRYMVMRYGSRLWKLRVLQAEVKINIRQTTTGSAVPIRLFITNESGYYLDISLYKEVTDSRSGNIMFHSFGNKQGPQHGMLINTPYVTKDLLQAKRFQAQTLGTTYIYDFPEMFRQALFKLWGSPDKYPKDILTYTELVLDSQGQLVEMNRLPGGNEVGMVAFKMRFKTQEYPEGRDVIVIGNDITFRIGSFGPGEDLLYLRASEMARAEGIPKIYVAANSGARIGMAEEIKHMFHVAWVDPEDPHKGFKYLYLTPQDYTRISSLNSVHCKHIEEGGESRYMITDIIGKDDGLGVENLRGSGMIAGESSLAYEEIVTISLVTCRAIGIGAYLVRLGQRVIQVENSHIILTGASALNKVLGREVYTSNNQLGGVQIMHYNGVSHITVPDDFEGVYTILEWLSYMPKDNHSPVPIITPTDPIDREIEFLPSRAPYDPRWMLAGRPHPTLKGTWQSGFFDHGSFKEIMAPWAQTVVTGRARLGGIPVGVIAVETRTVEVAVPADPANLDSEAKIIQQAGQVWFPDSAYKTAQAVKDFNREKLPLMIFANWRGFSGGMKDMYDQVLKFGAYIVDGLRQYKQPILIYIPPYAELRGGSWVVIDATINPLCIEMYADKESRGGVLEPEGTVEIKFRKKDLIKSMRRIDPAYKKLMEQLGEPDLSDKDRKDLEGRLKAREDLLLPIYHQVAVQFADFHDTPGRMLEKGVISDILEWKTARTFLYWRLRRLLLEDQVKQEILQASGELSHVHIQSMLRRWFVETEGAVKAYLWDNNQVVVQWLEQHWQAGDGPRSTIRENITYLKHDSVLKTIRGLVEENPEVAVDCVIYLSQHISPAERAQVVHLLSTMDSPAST

As for `CNC(=O)Nc1sc2ncccc2c1C(=O)N1CCC(N2CCCC3(C2)CC(C)(C)OC3=O)CC1` (single isomer, unassigned) [Example 14, N-(3-{[4-(3,3-dimethyl-1-oxo-2-oxa-7-azaspiro[4.5]dec-7-yl)piperidin-1-yl]carbonyl}thieno[2,3-b]pyridin-2-yl)-N′-methylurea], the IC50 on Human ACC1 fell in the range of 10 to 100 nM; in experiment [1], 1 to 10 nM.

`CNC(=O)Nc1sc2nc(C)ccc2c1C(=O)N1CCC(N2CCCC3(CC(=O)N(C(C)C)C3=O)C2)CC1` (single isomer, unassigned) [Example 18, N-(3-{[4-(2-isopropyl-1,3-dioxo-2,7-diazaspiro[4.5]dec-7-yl)piperidin-1-yl]carbonyl}-6-methylthieno[2,3-b]pyridin-2-yl)-N′-methylurea]: the values for the half-inhibitory concentration (IC50) (on Human ACC1; in experiment [1]) were 10 to 100 nM and 1 to 10 nM, respectively. Regarding `CCNC(=O)Nc1sc2nc(C)ccc2c1C(=O)N1CCC(N2CCCC3(CC(=O)N(C(C)C)C3=O)C2)CC1` (single isomer, unassigned) [Example 19, N-ethyl-N′-(3-{[4-(2-isopropyl-1,3-dioxo-2,7-diazaspiro[4.5]dec-7-yl)piperidin-1-yl]carbonyl}-6-methylthieno[2,3-b]pyridin-2-yl)urea], the IC50 on Human ACC1 fell in the range of 10 to 100 nM.

`CNC(=O)Nc1sc2nc(C)ccc2c1C(=O)N1CCC(N2CCCC3(C2)CC(C)(C)OC3=O)CC1` (single isomer, unassigned) [Example 27, N-(3-{[4-(3,3-dimethyl-1-oxo-2-oxa-7-azaspiro[4.5]dec-7-yl)piperidin-1-yl]carbonyl}-6-methylthieno[2,3-b]pyridin-2-yl)-N′-methylurea]: the concentration for half-maximal inhibition (IC50) on Human ACC1 lay within 10 to 100 nM; in experiment [1], 1 to 10 nM.

Turning to `CCNC(=O)Nc1sc2nc(C)ccc2c1C(=O)N1CCC(N2CCCC3(C2)CC(C)(C)OC3=O)CC1` (single isomer, unassigned) [Example 28, N-(3-{[4-(3,3-dimethyl-1-oxo-2-oxa-7-azaspiro[4.5]dec-7-yl)piperidin-1-yl]carbonyl}-6-methylthieno[2,3-b]pyridin-2-yl)-N′-ethylurea], the IC50 is 10 to 100 nM on Human ACC1 and 1 to 10 nM in experiment [1]. As for `CCNC(=O)Nc1sc2nc(C)ccc2c1C(=O)N1CCC(N2CCCC3(CCN(C(C)C)C3=O)C2)CC1` (single isomer, unassigned) [Example 65, N-ethyl-N′-(3-{[4-(2-isopropyl-1-oxo-2,7-diazaspiro[4.5]dec-7-yl)piperidin-1-yl]carbonyl}-6-methylthieno[2,3-b]pyridin-2-yl)urea], the results for the IC50 (at Human ACC1; in experiment [1]) were 10 to 100 nM and 1 to 10 nM, respectively. With `CNC(=O)Nc1sc2ncccc2c1C(=O)N1CCC(N2CCCC3(C2)SC(=O)N(C(C)C)C3=O)CC1` (centres unmarked) [Example 11, N-(3-{[4-(3-isopropyl-2,4-dioxo-1-thia-3,7-diazaspiro[4.5]dec-7-yl)piperidin-1-yl]carbonyl}thieno[2,3-b]pyridin-2-yl)-N′-methylurea], the half-inhibitory concentration (IC50) at Human ACC1 fell in the range of 10 to 100 nM. Same read-out and setting: the result for `CNC(=O)Nc1sc2nc(C)ccc2c1C(=O)N1CCC(N2CCCC3(C2)SC(=O)N(C(C)C)C3=O)CC1` (centres unmarked) [Example 31, N-(3-{[4-(3-isopropyl-2,4-dioxo-1-thia-3,7-diazaspiro[4.5]dec-7-yl)piperidin-1-yl]carbonyl}-6-methylthieno[2,3-b]pyridin-2-yl)-N′-methylurea] reads 10 to 100 nM; that for `CCNC(=O)Nc1sc2nc(C)ccc2c1C(=O)N1CCC(N2CCCC3(C2)N=C(C)N(C(C)C)C3=O)CC1` (centres unmarked) [Example 52], 10 to 100 nM. Turning to `CNC(=O)Nc1sc2nc(C)c(C)cc2c1C(=O)N1CCC(N2CCCC3(C2)CC(C)(C)OC3=O)CC1` (centres unmarked) [Example 74], in experiment [1], the IC50 was in the range of 1 to 10 nM.

Turning to `CCNC(=O)Nc1sc2nc(C)c(C)cc2c1C(=O)N1CCC(N2CCCC3(C2)CC(C)(C)OC3=O)CC1` (centres unmarked) [Example 75], the half-maximal inhibitory concentration (IC50) in experiment [1] is 1 to 10 nM. For `CCNC(=O)Nc1sc2nc(C(F)(F)F)ccc2c1C(=O)N1CCC(N2CCCC3(CC(=O)N(C(C)C)C3=O)C2)CC1` (centres unmarked) [Example 96, N-ethyl-N′-[3-{[4-(2-isopropyl-1,3-dioxo-2,7-diazaspiro[4.5]dec-7-yl)piperidin-1-yl]carbonyl}-6-(trifluoromethyl)thieno[2,3-b]pyridin-2-yl]urea], at Human ACC1, the IC50 lay within 10 to 100 nM.
